Assay results published in ChEMBL document CHEMBL3137667, “[Drug-induced liver injury; fourteenth updated edition of the bibliographic database of liver injuries and related drugs]” (Gastroenterol Clin Biol, 2004).
Where a SMILES comes first, the peptide text is derived from it. Bridges are numbered along the chain shown (N, C = ends). [ ]: non-standard residue; d: D form. The star is where a group is joined. Threoninol(2S,3R) = C[C@@H](O)[C@H](CO)N*

What was measured:
[1] = Highest frequency of moderate liver toxicity observed during clinical trials, expressed as a percentage. [column '% BIOL' in source]; conditions: human
[2] = Highest frequency of acute liver toxicity observed during clinical trials, expressed as a percentage. [column '% AIGUE' in source]; conditions: human
[3] = human, serum
[4] = human, serum; remark: listed apart in the source
[5] = human
[6] = human; remark: listed apart in the source
[7] = human; remark: listed apart in the source
[8] = human, serum, 4383 h
[9] = human; remark: listed apart in the source
[10] = human; remark: listed apart in the source
[11] = human; remark: listed apart in the source
[12] = human; remark: listed apart in the source
[13] = human; remark: listed apart in the source
[14] = human; remark: listed apart in the source
[15] = human; remark: listed apart in the source
[16] = Presence of at least one case with successful reintroduction. [column 'REINT' in source]; conditions: human
[17] = Comments (NB not yet translated). [column 'COMMENTAIRES' in source]; conditions: human
[18] = Times to onset, minimal and maximal, observed in the indexed observations. [column 'DELAI' in source]; conditions: human
[19] = Proposed mechanism(s) of liver damage. [column 'MEC' in source]; conditions: human
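For Hepatotoxicity (association with vascular disease) in this document: count of indexed literature references reporting vascular liver injury in humans, e.g. peliosis hepatitis, hepatic veno-occlusive disease or Budd-Chiari syndrome.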
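For Hepatotoxicity (benign tumour) in this document: value is a count of indexed literature references citing a benign tumour confirmed by histopathology.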
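For Hepatotoxicity (choleostasis) in this document: human cholestatic liver injury, shown by histopathology or by peak ALT or AST elevation over alkaline phosphatase ratio below 2, value counts indexed literature reports.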
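For Hepatotoxicity (chronic liver disease) in this document: chronic liver injury confirmed by histopathology or persistently raised serum aminotransferase activity beyond 6 months, value given as the count of indexed literature references.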
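For Hepatotoxicity (cirrhosis) in this document: value is a count of indexed literature references reporting cirrhosis confirmed by histopathology.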
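For Hepatotoxicity (cytolytic) in this document: human cytolytic liver injury, shown by histopathology or by a ratio above 5 of peak ALT or AST elevation to alkaline phosphatase elevation, value counts indexed references.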
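For Hepatotoxicity (granulomatous hepatitis) in this document: value is a count of indexed literature references reporting granulomatous liver disease confirmed by histopathology.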
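For Hepatotoxicity (malignant tumour) in this document: malignant tumour confirmed by histopathology, value gives the count of indexed literature references reporting it.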
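For Hepatotoxicity (severe hepatitis) in this document: human clinical data: severe hepatitis, meaning potentially life-threatening liver failure or clinically observed cases, the value counts how many indexed literature references report it.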
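For Hepatotoxicity (steatosis) in this document: steatosis confirmed by histopathology, value is the count of indexed references.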

Compound | Hepatotoxicity (moderate) [1] [%] | Hepatotoxicity (acute) [2] [%] | Hepatotoxicity (moderate) [3] | Hepatotoxicity (acute) [4] | Hepatotoxicity (cytolytic) [5] | Hepatotoxicity (choleostasis) [6] | Hepatotoxicity (severe hepatitis) [7] | Hepatotoxicity (chronic liver disease) [8] | Hepatotoxicity (cirrhosis) [9] | Hepatotoxicity (granulomatous hepatitis) [10] | Hepatotoxicity (association with vascular disease) [11] | Hepatotoxicity (steatosis) [12] | Hepatotoxicity (malignant tumour) [13] | Hepatotoxicity (benign tumour) [14] | Hepatotoxicity (animal toxicity known) [15] | Hepatotoxicity (successful reintroduction) [16] | Hepatotoxicity (comment) [17] | Hepatotoxicity (time to onset) [18] | Hepatotoxicity (mechanism) [19] | also measured
CC(C)/N=c1\cc2n(-c3ccc(Cl)cc3)c3ccccc3nc-2cc1Nc1ccc(Cl)cc1 [CLOFAZIMINE] | 16 | 5.6 | 2 | 1 | 0 | 1 | 0 | 0 | 0 | 0 | 0 | 0 | 0 | 0 | yes |  |  |  |  | 
N#CN [CYANAMIDE] | 0 | 0 | 0 | 2 | 0 | 2 | 0 | 11 | 2 | 0 | 0 | 0 | 0 | 0 | yes |  |  |  |  | 
CC(=O)O[C@]1(C(C)=O)CC[C@H]2[C@@H]3C=C(C)C4=CC(=O)CC[C@]4(C)[C@H]3CC[C@@]21C [MEGESTROL ACETATE] | 12.8 | 2.7 | 4 | 1 | 1 | 0 | 0 | 0 | 0 | 0 | 0 | 0 | 0 | 0 | yes |  |  |  |  | 
O=C(OC[C@H]1O[C@@H](OC(=O)c2cc(O)c(O)c(OC(=O)c3cc(O)c(O)c(O)c3)c2)[C@H](OC(=O)c2cc(O)c(O)c(OC(=O)c3cc(O)c(O)c(O)c3)c2)[C@@H](OC(=O)c2cc(O)c(O)c(OC(=O)c3cc(O)c(O)c(O)c3)c2)[C@@H]1OC(=O)c1cc(O)c(O)c(OC(=O)c2cc(O)c(O)c(O)c2)c1)c1cc(O)c(O)c(OC(=O)c2cc(O)c(O)c(O)c2)c1 [TANNIC ACID] | 0 | 0 | 0 | 13 | 13 | 0 | 8 | 0 | 0 | 0 | 0 | 0 | 0 | 0 | yes |  |  |  |  | 
CC1(C)[C@H](C(=O)O)N2C(=O)C[C@H]2S1(=O)=O.CCN1CCN(C(=O)N[C@@H](C(=O)N[C@@H]2C(=O)N3C(C(=O)O)=C(CSc4nnnn4C)CS[C@H]23)c2ccc(O)cc2)C(=O)C1=O |  |  |  |  | 0 | 0 |  | 0 | 0 | 0 | 0 | 0 | 0 | 0 | yes |  |  |  |  | 
CCCNCC(O)COc1ccccc1C(=O)CCc1ccccc1 (stereo unspecified) [PROPAFENONE] | 10.6 | 7.7 | 7 | 9 | 1 | 6 | 0 | 0 | 0 | 0 | 0 | 0 | 0 | 0 |  | yes | CHOLANGITE PRICHOLANGITE AC_ANTI-N | 6 days - 16 months | Allergic | 
NNc1nncc2ccccc12 [HYDRALAZINE] |  |  | 4 | 9 |  |  |  | 3 | 0 |  | 0 | 0 | 0 | 0 |  | yes | CHOLANGITE AC_ANTI-N | 2 days - 3 years |  | Hepatotoxicity (moderate) ([1]; Liver): 0%; Hepatotoxicity (acute) ([2]; Liver): 0%; Hepatotoxicity (mechanism) ([19]; Liver): Allergic, Toxic; Hepatotoxicity (cytolytic) ([5]; Liver): 6; Hepatotoxicity (choleostasis) ([6]; Liver): 3; Hepatotoxicity (severe hepatitis) ([7]; Liver): 2; Hepatotoxicity (granulomatous hepatitis) ([10]; Liver): 6
COc1ccc(Cc2nccc3cc(OC)c(OC)cc23)cc1OC [PAPAVERINE] | 53 | 3.3 | 11 | 9 | 7 | 6 | 0 | 4 | 3 | 1 | 0 | 0 | 0 | 0 |  | yes | AC_ANTI-ADN/-N PERICHOLANGITE | 1 day - 11 years | Allergic, Toxic Metabolite | 
C[C@@H](O)[C@H](CO)NC(=O)[C@@H]1CSSC[C@H](NC(=O)[C@H](N)Cc2ccccc2)C(=O)N[C@@H](Cc2ccccc2)C(=O)N[C@H](Cc2c[nH]c3ccccc23)C(=O)N[C@@H](CCCCN)C(=O)N[C@@H]([C@@H](C)O)C(=O)N1 (H-[dF]CF[dW]KTC-{Threoninol(2S,3R)}; disulfide 2-7) | 17.6 | 0 | 8 | 3 | 3 | 1 | 1 | 0 | 0 | 0 | 0 | 0 | 0 | 0 |  | yes | BOUE_BILIAIRE LITHIASE | 1 day - 14 months | Dose-dependant | 
INTERFERON ALFA-2A | 92 | 35.7 | 50 | 10 | 7 | 2 | 2 | 0 | 1 | 0 | 0 | 0 | 0 | 0 |  | yes | AC_ANTI-ML/-N AGGRAVATION_HAI/HVB I/PARACETAMOL CBP | 1 week - 9 months | Allergic, Dose-dependant | 
COc1ccc(Cl)cc1C(=O)NCCc1ccc(S(=O)(=O)NC(=O)NC2CCCCC2)cc1 [GLYBURIDE] | 6.7 | 0 | 7 | 14 | 2 | 10 | 0 | 0 | 1 | 2 | 0 | 0 | 0 | 0 |  | yes | CHOLANGITE DUCTOPENIE | 2 weeks - 7 years | Allergic, Dose-dependant | 
CC1=C(CC(=O)O)c2cc(F)ccc2/C1=C\c1ccc([S+](C)[O-])cc1 (stereo unspecified) | 14.9 | 0.2 | 25 | 29 | 12 | 22 | 3 | 0 | 0 | 0 | 0 | 4 | 0 | 0 |  | yes | LITHIASE CHOLESTASE_PROLONGEE CHOLANGITE | 1 day - 1.5 years | Allergic | 
